Series [1] can be described thus: Thioflavin T (ThT) assay: lagtime and peptide recovery. The following applies: assay terminated after 45 hours; for LagTime (h) at pH 4.0: ThT, 37° C., shaking; for LagTime (h) at pH 6.5: ThT assay, pH 6.5, 37° C. It is filed as physicochemical. The source says: The ThT assay was used to evaluate physical stability of the CNP compounds and their suitability for liquid formulation. Low physical stability of peptides may lead to amyloid fibril formation, which is observed as well-ordered, thread-like macromolecular structures in the sample eventually resulting in gel formation. This has traditionally been tested by visual inspection of the sample. However, that kind of measurement is very subjective and depending on the observer. Therefore, the application of a small molecule indicator probe is much more advantageous. Thioflavin T (ThT) is such a probe and has a distinct fluorescence signature when binding to fibrils [Naiki et al. (1989) Anal. Biochem. 177, 244-249; LeVine (1999) Methods. Enzymol. […], 274-284].
Procedure: Thioflavin T was added to the supernatant samples from Example 5 (pH 4.0 and 6.5) using an aqueous ThT stock solution to a final concentration of about 1 μM in the samples. Sample aliquots of 150 μL were placed in a 96 well microtiter plate (Packard OptiPlate™-96, white polystyrene). Usually, two to three replicas of each sample were applied to the plate. The plate was sealed and placed in a fluorescence plate reader (Fluoroskan Ascent FL) and incubated at 37° C. with orbital shaking (960 rpm; 1 mm amplitude). Fluorescence measurements were performed every 20 minutes using excitation through a 444 nm filter and measurement of emission through a 485 nm filter. Between each measurement, the plate was shaken and heated as described above and the assay was terminated after 45 hours. Fluorescence measurements for each microtiter plate well were plotted against time and the lag-time (time until an increase in ThT fluorescence was observed) was estimated.
To assess loss of dissolved peptide following 45h incubation, peptide recovery was measured as the ratio between total peak area after incubation vs. before incubation using the RP-UPLC method described below.
Measurement of LagTime and Peptide recovery % using RP-UPLC: RP-UPLC was conducted using an Acquity UPLC BEH C18 1.7 μm (2.1×30 mm) Waters column (Eluent A: 0.1% v/v % TFA in water; Eluent B: 0.1% v/v TFA in acetonitrile/water 4:1) with gradient elution (0 min: 95% A; 2 min: 20% A; 2.3 min: 20% A; 2.4 min: 95% A; 9 min: 95% A) in a flow rate of 0.9 mL/min and a column temperature of 30° C. UV-detection at 215 nm was used to assess the total peptide area.
Samples at pH 4.0 were prepared as described in Example 5 and subjected to the ThT assay as described above.
Samples at pH 6.5 were prepared as described in Example 5 and subjected to the ThT assay as described above.

Series [2] in a line: High-Molecular-Weight-Protein (HMWP) formation by SEC-UPLC. Format: physicochemical. The following applies: increase over two weeks at 37° C. The protocol:
In order to assess the propensity of CNP compounds to form covalent dimers or oligomers when formulated the High-Molecular-Weight-Protein content of CNP compound formulations at pH 4.0 and 6.5 were determined.
Procedure: The relative amount of covalent HMWP was assessed using SEC-UPLC. SEC-UPLC was conducted using a Waters UPLC Protein BEH SEC column, 125A, 4.6×150 mm, 1.7 μm, with isocratic elution (0.3 M NaCl, 10 mM NaH2PO4 and 5 mM H3PO4, 50% (v/v) isopropanol, pH 2.4) with a flow rate of 0.3 mL/min, a column temperature at 50° C. with UV-detection at 215 nm. The total area of peaks eluting prior to the monomeric main peak was termed HMWP and given on a percentage scale relative to the total peptide peak area.
Results: HMWP Formation Following 2-Weeks Quiescent Incubation at 37° C.: Samples at pH 4.0 were prepared as described in Example 5 and the amount of HMWP was determined as described above. Samples were incubated for two weeks at 37° C. and the amount of HMWP was determined again. The increase in HMWP over two weeks incubation at 37° C. are reported in Table 10 (in case the incubation period deviated from two weeks the increase in HMWP was normalized to two weeks assuming a constant formation rate).
Samples at pH 6.5 were prepared as described in Example 5 and the amount of HMWP was determined as described above. Samples were incubated for two weeks at 37° C. and the amount of HMWP was determined again. The increase in HMWP over two weeks incubation at 37° C. are reported in Table 11 (in case the incubation period deviated from two weeks the increase in HMWP was normalized to two weeks assuming a constant formation rate).
On the technique in general: In gel filtration, larger molecules generally elute earlier.

Starred links: 1 amine or outer side, 2 acyl side, 3 side chain; linkers in the order of their positions; H or OH if unused. Positions of bridges follow the written chain, without caps; N, C: chain ends. Residues, ends and D or L forms follow the SMILES beside them. *: point of attachment. C18 diacid = O=C(O)CCCCCCCCCCCCCCCCC(=O)*; γGlu = O=C(O)[C@H](CCC(=O)[*:2])N[*:1]; AEEA = NCCOCCOCC(=O)O

Take `CC[C@H](C)[C@@H]1NC(=O)[C@H](CCCNC(=N)N)NC(=O)[C@H](CC(=O)O)NC(=O)[C@H](CC(C)C)NC(=O)[C@@H]2CCCN2C(=O)[C@H](CC(C)C)NC(=O)CNC(=O)[C@H](Cc2ccccc2)NC(=O)[C@@H](NC(=O)CNC(=O)[C@H](CO)NC(=O)[C@H](CO)NC(=O)[C@@H](NC(=O)CNC(=O)[C@@H](NC(=O)[C@H](Cc2c[nH]cn2)NC(=O)[C@H](CCC(N)=O)NC(=O)[C@H](C)NC(=O)CNC(=O)[C@H](Cc2c[nH]cn2)NC(=O)[C@H](Cc2ccc(O)cc2)NC(=O)[C@H](CCCCN)NC(=O)[C@H](CCCNC(=N)N)NC(=O)[C@H](C)NC(=O)COCCOCCNC(=O)COCCOCCNC(=O)CC[C@H](NC(=O)CCCCCCCCCCCCCCCCC(=O)O)C(=O)O)[C@@H](C)O)C(C)C)CSSC[C@@H](C(=O)O)NC(=O)CNC(=O)[C@H](CC(C)C)NC(=O)CNC(=O)[C@H](CO)NC(=O)[C@H](CC(C)C)NC(=O)[C@H](CO)NC(=O)CNC1=O` [compound 1351] ({C18 diacid-γGlu-AEEA-AEEA}-ARKYHGAQHTGVSSGCFGLPLDRIGSLSGLGC-OH; disulfide 16-32): the “LagTime (h) at pH 4.0” value in series [1] turned out to be 45 h. Also, the “2-Week HMWP formation at pH 4.0 (%), % relative to total peak area” value in series [2] stood at 1.94%.

For the molecule `CC[C@H](C)[C@@H]1NC(=O)[C@H](CCCNC(=N)N)NC(=O)[C@H](CC(=O)O)NC(=O)[C@H](CC(C)C)NC(=O)[C@@H]2CCCN2C(=O)[C@H](CC(C)C)NC(=O)CNC(=O)[C@H](Cc2ccccc2)NC(=O)[C@@H](NC(=O)CNC(=O)[C@H](CO)NC(=O)[C@H](CO)NC(=O)[C@@H](NC(=O)CNC(=O)[C@@H](NC(=O)[C@H](CCCCN)NC(=O)[C@H](CCC(N)=O)NC(=O)[C@H](C)NC(=O)CNC(=O)[C@H](Cc2c[nH]cn2)NC(=O)[C@H](Cc2ccc(O)cc2)NC(=O)COCCOCCNC(=O)COCCOCCNC(=O)COCCOCCNC(=O)CC[C@H](NC(=O)CCCCCCCCCCCCCCCCC(=O)O)C(=O)O)[C@@H](C)O)C(C)C)CSSC[C@@H](C(=O)O)NC(=O)CNC(=O)[C@H](CC(C)C)NC(=O)CNC(=O)[C@H](CO)NC(=O)[C@H](CC(C)C)NC(=O)[C@H](CO)NC(=O)CNC1=O` [compound 1352] ({C18 diacid-γGlu-AEEA-AEEA-AEEA}-YHGAQKTGVSSGCFGLPLDRIGSLSGLGC-OH; disulfide 13-29), the “LagTime (h) at pH 6.5” value in series [1] came to 23 h. The “2-Week HMWP formation at pH 6.5 (%), % relative to total peak area” value in series [2] came out at 0.82%.

On to `CC[C@H](C)[C@@H]1NC(=O)[C@H](CCCNC(=N)N)NC(=O)[C@H](CC(=O)O)NC(=O)[C@H](CC(C)C)NC(=O)[C@@H]2CCCN2C(=O)[C@H](CC(C)C)NC(=O)CNC(=O)[C@H](Cc2ccccc2)NC(=O)[C@@H](NC(=O)CNC(=O)[C@H](CO)NC(=O)[C@H](CO)NC(=O)[C@H](CC(C)C)NC(=O)CNC(=O)[C@H](CCCCN)NC(=O)[C@H](CCCCN)NC(=O)[C@H](CCC(N)=O)NC(=O)[C@H](C)NC(=O)CNC(=O)[C@H](CCC(=O)O)NC(=O)[C@H](Cc2ccc(O)cc2)NC(=O)CNC(=O)CNC(=O)CNC(=O)COCCOCCNC(=O)COCCOCCNC(=O)CC[C@H](NC(=O)CCCCCCCCCCCCCCCCC(=O)O)C(=O)O)CSSC[C@@H](C(=O)O)NC(=O)CNC(=O)[C@H](CC(C)C)NC(=O)CNC(=O)[C@H](CO)NC(=O)[C@H](CC(C)C)NC(=O)[C@H](CO)NC(=O)CNC1=O` [compound 1378] ({C18 diacid-γGlu-AEEA-AEEA}-GGGYEGAQKKGLSSGCFGLPLDRIGSLSGLGC-OH; disulfide 16-32), for which the “LagTime (h) at pH 6.5” value in series [1] was 2.5 h. For the same molecule, the “2-Week HMWP formation at pH 6.5 (%), % relative to total peak area” value in series [2] is reported as 6.67%.

`CC[C@H](C)[C@@H]1NC(=O)[C@H](CCCNC(=N)N)NC(=O)[C@H](CC(=O)O)NC(=O)[C@H](CC(C)C)NC(=O)[C@@H]2CCCN2C(=O)[C@H](CC(C)C)NC(=O)CNC(=O)[C@H](Cc2ccccc2)NC(=O)[C@@H](NC(=O)CNC(=O)[C@H](CCC(N)=O)NC(=O)[C@H](CO)NC(=O)[C@H](CO)NC(=O)CNC(=O)[C@H](Cc2c[nH]cn2)NC(=O)[C@H](Cc2c[nH]cn2)NC(=O)[C@H](CCC(N)=O)NC(=O)[C@H](C)NC(=O)CNC(=O)[C@H](Cc2c[nH]cn2)NC(=O)[C@H](Cc2ccc(O)cc2)NC(=O)[C@H](CCCCN)NC(=O)[C@H](Cc2c[nH]cn2)NC(=O)[C@H](C)NC(=O)[C@H](CCC(N)=O)NC(=O)[C@@H]2CCCN2C(=O)[C@H](Cc2c[nH]cn2)NC(=O)[C@H](CCC(=O)O)NC(=O)[C@H](CCC(N)=O)NC(=O)COCCOCCNC(=O)COCCOCCNC(=O)CC[C@H](NC(=O)CCCCCCCCCCCCCCCCC(=O)O)C(=O)O)CSSC[C@@H](C(=O)O)NC(=O)CNC(=O)[C@H](CC(C)C)NC(=O)CNC(=O)[C@H](CO)NC(=O)[C@H](CC(C)C)NC(=O)[C@H](CO)NC(=O)CNC1=O` [compound 1381] ({C18 diacid-γGlu-AEEA-AEEA}-QEHPQAHKYHGAQHHGSSQGCFGLPLDRIGSLSGLGC-OH; disulfide 21-37): the “LagTime (h) at pH 4.0” value in series [1] is 45 h. Besides, the “2-Week HMWP formation at pH 4.0 (%), % relative to total peak area” value in series [2] worked out at 0.84%.

For the molecule `CC[C@H](C)[C@@H]1NC(=O)[C@H](CCCNC(=N)N)NC(=O)[C@H](CC(=O)O)NC(=O)[C@H](CC(C)C)NC(=O)[C@@H]2CCCN2C(=O)[C@H](CC(C)C)NC(=O)CNC(=O)[C@H](Cc2ccccc2)NC(=O)[C@@H](NC(=O)CNC(=O)[C@H](CCC(N)=O)NC(=O)[C@H](CO)NC(=O)[C@H](CC(C)C)NC(=O)CNC(=O)[C@H](CCCCN)NC(=O)[C@H](CCCCN)NC(=O)[C@H](CCC(N)=O)NC(=O)[C@H](C)NC(=O)CNC(=O)[C@H](CCCCN)NC(=O)[C@H](Cc2ccc(O)cc2)NC(=O)[C@H](CCCCN)NC(=O)[C@H](Cc2c[nH]cn2)NC(=O)[C@H](C)NC(=O)[C@H](CCC(N)=O)NC(=O)[C@@H]2CCCN2C(=O)[C@H](Cc2c[nH]cn2)NC(=O)[C@H](CCC(=O)O)NC(=O)[C@H](CCC(N)=O)NC(=O)COCCOCCNC(=O)COCCOCCNC(=O)CC[C@H](NC(=O)CC[C@H](NC(=O)CC[C@H](NC(=O)CCCCCCCCCCCCCCCCC(=O)O)C(=O)O)C(=O)O)C(=O)O)CSSC[C@@H](C(=O)O)NC(=O)CNC(=O)[C@H](CC(C)C)NC(=O)CNC(=O)[C@H](CO)NC(=O)[C@H](CC(C)C)NC(=O)[C@H](CO)NC(=O)CNC1=O` [compound 1382] ({C18 diacid-γGlu-γGlu-γGlu-AEEA-AEEA}-QEHPQAHKYKGAQKKGLSQGCFGLPLDRIGSLSGLGC-OH; disulfide 21-37), the “LagTime (h) at pH 6.5” value in series [1] is given as 45 h. The “2-Week HMWP formation at pH 6.5 (%), % relative to total peak area” value in series [2] came out at 0%.

Values taken from patent publication US20240209028A1, “CNP COMPOUNDS” (priority 2022, published 2024).
